Reference: paper PMC10418426, “A Comprehensive Technology Platform for the Rapid Discovery of Peptide Inhibitors against SARS-CoV-2 Pseudovirus Infection” (International Journal of Molecular Sciences, 2023)
Starred links: 1 amine or outer side, 2 acyl side, 3 side chain; linkers in the order of their positions; H or OH if unused. Positions of bridges follow the written chain, without caps; N, C: chain ends. Residues, ends and D or L forms follow the SMILES beside them. mXylylene = c1cc(C[*:1])cc(C[*:2])c1

Test system: HEK293-ACE2 cells
Details: 1 to 100 μM, 24 h treatment plus 24 h in fresh medium, absorbance 560 nm

## C[C@@H](O)[C@@H]1NC(=O)[C@@H]2CCCN2C(=O)[C@H](CCC(N)=O)NC(=O)[C@@H](N)CSCc2cccc(c2)CSC[C@@H](C(N)=O)NC(=O)[C@H](CCC(N)=O)NC(=O)[C@H](Cc2c[nH]c3ccccc23)NC(=O)CNC(=O)[C@H](CCCCN)NC(=O)CNC(=O)[C@H](CC(N)=O)NC1=O [c9_05] (H-CQPTNGKGWQC-NH2; linker 1-11 via mXylylene)
  effect on cell viability (MTT): did not cause any significant decrease in cell viability
